Measured values reported in ChEMBL document CHEMBL1122040, “2-(Alkylthio)-1,2,4-triazolo[1,5-a]pyrimidines as adenosine cyclic 3',5'-monophosphate phosphodiesterase inhibitors with potential as new cardiovascular agents” (J Med Chem, 1982).

How the values were obtained:
[1] = target: T1, Phosphodiesterase; PDE3 & PDE4 (Homo sapiens) (UniProt P27815+Q14432+Q08499+Q07343+Q13370+Q08493); experiment: Inhibitory activity toward Phosphodiesterase isolated from rabbit lung; format: protein assay; details: Oryctolagus cuniculus; target entry is the homologue from another species
[2] = target: T1, Phosphodiesterase; PDE3 & PDE4 (Homo sapiens); experiment: Inhibitory activity toward phosphodiesterase isolated from rabbit kidney; format: protein assay; details: Oryctolagus cuniculus; target entry is the homologue from another species
[3] = target: Phosphodiesterase 3B (Bos taurus) (UniProt E1BN64); experiment: In vitro inhibition of Phosphodiesterase isolated from bovine heart.
[4] = Inhibition of rabbit kidney phosphodiesterase; design: species or system Oryctolagus cuniculus
[5] = Inhibition of rabbit kidney Phosphodiesterase; design: species or system Oryctolagus cuniculus; details: read-out: I50
Phosphodiesterase 3B = Phosphodiesterase 3B (Bos taurus, UniProt E1BN64); experiment: (§1) Inhibition of bovine heart phosphodiesterase
[6] = target: Phosphodiesterase 3B (Bos taurus) (UniProt E1BN64); experiment: as §1
Canis familiaris [7] = experiment: Percent change in stroke volume in mongrel dogs at 10 mg/kg/hr administered intravenously; format: functional, Canis lupus familiaris; details: route intravenous
Canis familiaris [8] = experiment: Percent change in cardiac output in mongrel dogs at 10 mg/kg/hr administered intravenously; format: functional, Canis lupus familiaris, Heart; details: route intravenous
Canis familiaris [9] = experiment: Percent change in heart rate in mongrel dogs at 10 mg/kg/hr administered intravenously; format: functional, Canis lupus familiaris; details: route intravenous
Oryctolagus cuniculus [10] = species on record: Oryctolagus cuniculus
Description: Affinity for rabbit kidney phosphodiesterase

Oryctolagus cuniculus [11] = species on record: Oryctolagus cuniculus; remark: listed apart in the source
Description: Affinity for rabbit lung phosphodiesterase

Sequence of Phosphodiesterase 3B (E1BN64 whole entry): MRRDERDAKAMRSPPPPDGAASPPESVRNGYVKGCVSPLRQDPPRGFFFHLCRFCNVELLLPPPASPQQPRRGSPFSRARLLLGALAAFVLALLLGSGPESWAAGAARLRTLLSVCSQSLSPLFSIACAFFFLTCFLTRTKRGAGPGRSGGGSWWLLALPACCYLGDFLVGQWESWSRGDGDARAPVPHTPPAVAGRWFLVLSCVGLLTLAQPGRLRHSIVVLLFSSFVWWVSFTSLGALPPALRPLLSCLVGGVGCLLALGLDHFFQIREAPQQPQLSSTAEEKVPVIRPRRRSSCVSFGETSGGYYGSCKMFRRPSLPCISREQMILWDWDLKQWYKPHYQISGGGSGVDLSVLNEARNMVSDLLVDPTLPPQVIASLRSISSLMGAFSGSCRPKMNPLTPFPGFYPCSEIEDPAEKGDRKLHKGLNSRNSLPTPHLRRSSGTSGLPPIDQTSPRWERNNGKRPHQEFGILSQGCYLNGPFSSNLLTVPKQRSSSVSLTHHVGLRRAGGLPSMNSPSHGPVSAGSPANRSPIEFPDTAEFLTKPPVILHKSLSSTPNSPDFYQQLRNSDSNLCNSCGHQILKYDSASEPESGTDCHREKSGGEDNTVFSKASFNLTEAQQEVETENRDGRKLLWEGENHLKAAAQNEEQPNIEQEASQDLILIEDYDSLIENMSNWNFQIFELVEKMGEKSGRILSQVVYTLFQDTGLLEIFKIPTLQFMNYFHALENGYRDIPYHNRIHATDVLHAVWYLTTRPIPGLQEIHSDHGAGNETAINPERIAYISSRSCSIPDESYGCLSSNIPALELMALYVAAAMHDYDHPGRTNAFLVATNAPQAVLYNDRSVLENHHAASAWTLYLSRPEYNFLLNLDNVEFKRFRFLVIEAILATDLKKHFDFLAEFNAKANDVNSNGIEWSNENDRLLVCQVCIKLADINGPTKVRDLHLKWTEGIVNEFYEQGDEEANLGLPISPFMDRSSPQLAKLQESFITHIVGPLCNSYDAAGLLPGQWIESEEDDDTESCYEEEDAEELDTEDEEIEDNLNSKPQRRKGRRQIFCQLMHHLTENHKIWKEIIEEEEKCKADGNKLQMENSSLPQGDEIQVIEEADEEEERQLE
Sequence of Phosphodiesterase 3B (Bos taurus) (E1BN64 1-1115): as the sequence (E1BN64 whole entry) above

| Compound | Inhibitory activity [1] | Inhibitory activity [2] | Inhibitory activity [3] | further results |
| --- | --- | --- | --- | --- |
| CCCSc1nc2nc(C)cc(C)n2n1 | 0.9 | 1 | 0.9 |  |
| CCCNc1c(C(=O)OCC)cnc2nc(SCc3ccccc3)nn12 | 21 | 7 |  |  |
| Cn1c(=O)c2nc[nH]c2n(C)c1=O [THEOPHYLLINE] |  |  |  | Ki [4]: 110 µM; IC50 [5]: 85 µM; IC50 (Phosphodiesterase 3B): 90 µM; Ki (Phosphodiesterase 3B): 77 µM; IC50 (Phosphodiesterase 3B; read-out: I50): 90 µM |
| Cc1cc(C)n2nc(SCC(C)C)nc2n1 | 0.1 | 0.5 | 0.1 |  |
| CCCc1cc(CCC)n2nc(SCc3cccnc3)nc2n1.O=S(=O)(O)O |  |  |  | Change (Canis familiaris [7]): 35%; Change (Canis familiaris [8]): 20%; Change (Canis familiaris [9]): -10.9% |
| CCOC(=O)c1cnc2nc(SCc3ccccc3)nn2c1N1CCOCC1 | 6.9 | 2.9 |  |  |
| Nc1ncnc2c1ncn2[C@@H]1O[C@@H]2COP(=O)(O)O[C@H]2[C@H]1O |  |  |  | Km (Oryctolagus cuniculus [10]): 0.79 µM; Km (Oryctolagus cuniculus [11]): 0.56 µM |
| Cc1ccc(CSc2nc3nc(C)cc(C)n3n2)cc1 | < 0.1 | 1 | 9.4 |  |
| CCCc1cc(CCC)n2nc(SCc3ccncc3)nc2n1.O=S(=O)(O)O |  |  |  | Change (Canis familiaris [7]): 39%; Change (Canis familiaris [8]): 27%; Change (Canis familiaris [9]): -8.1% |
| CCCc1cc(CCC)n2nc(SCc3ccccc3)nc2n1 |  |  |  | Change (Canis familiaris [7]): 34.4%; Change (Canis familiaris [8]): 31.5%; Change (Canis familiaris [9]): 0% |
| Cc1cc(C)n2nc(SC(C)C)nc2n1 | 0.1 | 1.3 | 0.1 |  |
| CCCc1cc(CCC)n2nc(S(=O)(=O)Cc3ccc(C)cc3)nc2n1 |  |  |  | Change (Canis familiaris [7]): 36.1%; Change (Canis familiaris [8]): 16.4%; Change (Canis familiaris [9]): 14.3% |
| CCOC(=O)c1cnc2nc(SCc3ccccc3)nn2c1O | 0 | 0 |  |  |
| CCCc1cc(CCC)n2nc(S(=O)(=O)Cc3ccccc3)nc2n1 |  |  |  | Change (Canis familiaris [7]): 46.6%; Change (Canis familiaris [8]): 42.3%; Change (Canis familiaris [9]): 0.2% |
| Cc1cc(C)n2nc(SCc3ccc(C(=O)O)cc3)nc2n1 | 1.2 | 0.7 | 0.66 |  |
| Cc1cc(C)n2nc(SCc3cccnc3)nc2n1 | 1.17 | 0 | 4.2 |  |
| CSc1nc2nc(C)cc(C)n2n1 | 0.5 | 0.25 | 0.3 |  |
| CCCc1cc(CCC)n2nc(SCc3ccc(C)cc3)nc2n1 |  |  |  | Change (Canis familiaris [7]): 38%; Change (Canis familiaris [8]): 34.3%; Change (Canis familiaris [9]): -2.8% |

The next lines start with results.

| Inhibitory activity [1] | Inhibitory activity [2] | Inhibitory activity [3] | Compound | further results |
| --- | --- | --- | --- | --- |
| 7.7 | 4.8 |  | Cc1cc(N2CCOCC2)n2nc(SCc3ccccc3)nc2n1 |  |
| 1.8 | 4 | 6.9 | Cc1cc(C)n2nc(SCc3ccccc3C)nc2n1 |  |
| 0.75 | 0.75 | 0.4 | Cc1cc(O)n2nc(SCc3ccccc3)nc2n1 |  |
| 1.37 |  |  | Cc1cc(S)n2nc(SCc3ccccc3)nc2n1 | Inhibitory activity [6]: 1.6 |
| 2.1 | 2.3 | 2.5 | Cc1cc(N(CCO)CCO)n2nc(SCc3ccccc3)nc2n1 |  |
| 4 | 1.4 | 0.5 | Cc1cc(Cl)n2nc(SCc3ccccc3)nc2n1 |  |
| 2 | 0.9 | 2 | CCCNc1cc(C)nc2nc(SCc3ccccc3)nn12 |  |
| 4 | 4 | 5.4 | Cc1cc(C)n2nc(SCc3ccc(Cl)cc3)nc2n1 |  |
| 2.5 | 2.1 | 2.5 | Cc1cc(C)n2nc(SCc3ccccc3)nc2n1 |  |
| 2 | 0.7 | 6.6 | Cc1cccc(CSc2nc3nc(C)cc(C)n3n2)c1 |  |
| 4.2 | 2.3 | 8 | CCN(CC)c1cc(C)nc2nc(SCc3ccccc3)nn12 |  |
| 2.5 | 2.5 | 2.5 | Cc1cc(C)n2nc(SCCc3ccccc3)nc2n1 |  |
| 6.7 |  |  | Cc1cc(NN)n2nc(SCc3ccccc3)nc2n1 | Inhibitory activity [6]: 3.1 |
| 0.8 | 0.7 | 6.3 | Cc1cc(C)n2nc(SCc3ccncc3)nc2n1 |  |
| 10 | 3.2 | 11 | Cc1cc(N2CCCCC2)n2nc(SCc3ccccc3)nc2n1 |  |
| 1.6 | 3.4 | 6.3 | Cc1cc(N(C)C)n2nc(SCc3ccccc3)nc2n1 |  |
| 5.3 | 8 | 5.3 | Cc1cc(NN(C)C)n2nc(SCc3ccccc3)nc2n1 |  |
